Measurements as given in patent publication US6921848B2, “Genes involved in brassinosteroid hormone action in plants” (The Salk Institute for Biological Studies, priority 2001, dated 2005).

Experiments:
Arabidopsis plants [1] = test: Brassinazole application to Arabidopsis plants (mutant screen); assay type: in vivo, Arabidopsis thaliana; details: EMS mutagenized Arabidopsis plants, most plants
Protocol: EMS mutagenized Arabidopsis seeds were grown into plants that were then subjected to a suppressor screen for mutants insensitive to the brassinosteroid pathway inhibitor brassinazole. […] The mutant protein is herein referred to as bzr1-D (SEQ ID NO. 7).
(§1) The mutagenized plants were put through a screening procedure based on the use of brassinazole, a triazole-type brassinosteroid biosynthesis inhibitor (Asami, et al., Plant Physiol. 123: 93, 2000).

Arabidopsis plants [2] = details: normal Arabidopsis plants; cited from earlier work
bzr1-D mutant = test: Brassinazole sensitivity of the bzr1-D mutant; assay type: in vivo, Arabidopsis thaliana
Text: as §1
The dark-grown bzr1-D mutant is insensitive to brassinazole inhibition of hypocotyl elongation. The bzr1-D mutant has a curly hypocotyl similar to that of a seedling grown on medium containing brassinosteroids.

**Q.** With CC(O)(c1ccccc1)C(Cc1ccc(Cl)cc1)n1cncn1 (stereo not shown) [brassinazole] as the molecule, how does the “Phenotype of plants treated with brassinazole” value (Arabidopsis plants [1]) read?
**A.** stunted

**Q.** And the “Effects of brassinazole application” value (Arabidopsis plants [2])?
**A.** dwarfism, altered leaf morphology, darker greening of leaves, and decreased hypocotyl length

**Q.** What about the Bassinazole sensitivity (bzr1-D mutant; dark-grown) of the same molecule?
**A.** insensitive

**Q.** What about the Bassinazole sensitivity (bzr1-D mutant; light-grown) of the same molecule?
**A.** partially sensitive
